The assay concerns Mycobacterium tuberculosis. Briefly: In vitro anti-mycobacterial activity against Mycobacterium tuberculosis H37Rv. The class given is functional.

Values after ≈ are worked out from the molar mass of the structure shown.

The molecule `CO[C@H]1/C=C/O[C@@]2(C)Oc3c(C)c(O)c4c(O)c(c(/C=N/N5CCN(C)CC5)c(O)c4c3C2=O)NC(=O)/C(C)=C\C=C\[C@H](C)[C@H](O)[C@@H](C)[C@@H](O)[C@@H](C)[C@H](OC(C)=O)[C@@H]1C` [RIFAMPIN] came in with a minimal inhibitory concentration (MIC) of 0.06 µg/mL (≈ 0.0729 µM).

The molecule `NNC(=O)c1ccncc1` [ISONIAZID] gave an MIC of 0.025 µg/mL (≈ 0.182 µM).

Usually MIC stands for the lowest concentration that inhibits growth of the organism. A lower MIC goes with a more susceptible organism.

The record behind these values is ChEMBL document CHEMBL1134158, “Antimycobacterial in vitro activity of cobalt(II) isonicotinoylhydrazone complexes. Part 10” (2001).
